Data taken from patent US11969428B2, “Methods and pharmaceutical compositions for treating lymphoid malignancy” (priority 2011, dated 2024).

Experiments:
Experiment in all cases: Ambit KinomeScan screening
Assay type in all cases: binding
Details in all cases: CAL-130 10 μM
[1] = target: T1, ABL1(Y253F) (Homo sapiens, UniProt P00519, Y253F)
T1 construct: unspecified tag ("tagged kinases"); purchased Ambit (KinomeScan screening)
Outline: (§1)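 Read-out is % of control binding: the tagged kinase retained on an immobilized bait ligand when CAL-130 is present at 10 μM. A lower percentage reflects stronger compound interaction, and anything over 35% counts as no hit.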

[2] = target: T2, ACVR1B (Homo sapiens, UniProt P36896)
T2 construct: unspecified tag ("tagged kinases"); purchased Ambit (KinomeScan screening)
Outline: as §1

[3] = target: T3, ALK (Homo sapiens, UniProt Q9UM73)
T3 construct: purchased Ambit (KinomeScan screening)
Outline: as §1

[4] = target: T4, CAMK1D (Homo sapiens, UniProt Q8IU85)
T4 construct: unspecified tag ("tagged kinases"); purchased Ambit (KinomeScan screening)
Outline: as §1

[5] = target: T5, CAMK2G (Homo sapiens, UniProt Q13555)
T5 construct: purchased Ambit (KinomeScan screening)
Outline: as §1

[6] = target: T6, CDC2L1 (Homo sapiens, UniProt P21127)
T6 construct: purchased Ambit (KinomeScan screening)
Outline: as §1

[7] = target: T7, CDK7 (Homo sapiens, UniProt P50613)
T7 construct: purchased Ambit (KinomeScan screening)
Outline: as §1

[8] = target: T8, CDKL2 (Homo sapiens, UniProt Q92772)
T8 construct: purchased Ambit (KinomeScan screening service)
Outline: as §1

[9] = target: T9, CHEK2 (Homo sapiens, UniProt O96017)
T9 construct: purchased Ambit (KinomeScan screening service)
Outline: as §1

[10] = target: T10, DCAMKL1 (Homo sapiens, UniProt O15075)
T10 construct: unspecified tag ("tagged kinases"); purchased Ambit (KinomeScan screening service)
Outline: as §1

[11] = target: T11, DLK (Homo sapiens, UniProt Q12852)
T11 construct: unspecified tag ("tagged kinases"); purchased Ambit (KinomeScan screening service)
Outline: as §1

[12] = target: T12, DRAK1 (Homo sapiens, UniProt Q9UEE5)
T12 construct: unspecified tag ("tagged kinases"); purchased Ambit (KinomeScan screening service)
Outline: as §1

[13] = target: T13, DYRK1A (Homo sapiens, UniProt Q13627)
T13 construct: unspecified tag ("tagged kinases"); purchased Ambit (KinomeScan screening service)
Outline: as §1

[14] = target: T14, EGFR(L747-E749DEL, A750P) (Homo sapiens, UniProt P00533, A750P/DEL747-749)
T14 construct: unspecified tag; purchased Ambit (KinomeScan screening service)
Outline: as §1

[15] = target: T15, EPHA1 (Homo sapiens, UniProt P21709)
T15 construct: purchased Ambit (KinomeScan screening service)
Outline: as §1

[16] = target: T16, ERBB3 (Homo sapiens, UniProt P21860)
T16 construct: unspecified tag ("tagged kinases"); purchased Ambit (KinomeScan screening service)
Outline: as §1

[17] = target: T17, FYN (Homo sapiens, UniProt P06241)
T17 construct: unspecified tag ('tagged kinases'); purchased Ambit (KinomeScan screening service)
Outline: as §1

[18] = target: T18, HCK (Homo sapiens, UniProt P08631)
T18 construct: unspecified tag ('tagged kinases'); purchased Ambit (KinomeScan screening service)
Outline: as §1

[19] = target: T19, HIPK2 (Homo sapiens, UniProt Q9H2X6)
T19 construct: unspecified tag ('tagged kinases'); purchased Ambit (KinomeScan screening service)
Outline: as §1

[20] = target: T20, JNK3 (Homo sapiens, UniProt P53779)
T20 construct: purchased Ambit (KinomeScan screening)
Outline: as §1

[21] = target: T21, KIT(L576P) (Homo sapiens, UniProt P10721, L576P)
T21 construct: purchased Ambit (KinomeScan screening)
Outline: as §1

[22] = target: T22, LTK (Homo sapiens, UniProt P29376)
T22 construct: unspecified tag ('tagged kinases'); purchased Ambit (KinomeScan screening service)
Outline: as §1

[23] = target: T23, LZK (Homo sapiens, UniProt O43283)
T23 construct: unspecified tag ('tagged kinases'); purchased Ambit (KinomeScan screening service)
Outline: as §1

[24] = target: T24, MAP3K2 (Homo sapiens, UniProt Q9Y2U5)
T24 construct: Ambit (KinomeScan screening)
Outline: as §1

[25] = target: T25, MEK2 (Homo sapiens, UniProt P36507)
T25 construct: purchased Ambit (KinomeScan screening)
Outline: as §1

[26] = target: T26, NDR1 (Homo sapiens, UniProt Q15208)
T26 construct: unspecified tag; purchased Ambit (KinomeScan screening panel)
Outline: as §1

[27] = target: T27, NDR2 (Homo sapiens, UniProt Q9Y2H1)
T27 construct: unspecified tag; purchased Ambit (KinomeScan screening panel)
Outline: as §1

[28] = target: T28, PRKG2 (Homo sapiens, UniProt Q13237)
T28 construct: tag (kind not specified); purchased Ambit (KinomeScan screening service)
Outline: as §1

[29] = target: T29, RIOK1 (Homo sapiens, UniProt Q9BRS2)
T29 construct: unspecified tag (tagged kinase); purchased Ambit (KinomeScan screening)
Outline: as §1

[30] = target: T30, SRPK2 (Homo sapiens, UniProt P78362)
T30 construct: purchased Ambit (KinomeScan screening service)
Outline: as §1

[31] = target: T31, STK16 (Homo sapiens, UniProt O75716)
T31 construct: purchased Ambit (KinomeScan screening service)
Outline: as §1

[32] = target: T32, SYK (Homo sapiens, UniProt P43405)
T32 construct: tag (kind not specified); purchased Ambit (KinomeScan screening service)
Outline: as §1

[33] = target: T33, TGFBR2 (Homo sapiens, UniProt P37173)
T33 construct: unspecified tag (tagged kinase); purchased Ambit (KinomeScan screening)
Outline: as §1

[34] = target: T34, TLK1 (Homo sapiens, UniProt Q9UKI8)
T34 construct: unspecified tag (tagged kinase); purchased Ambit (KinomeScan screening)
Outline: as §1

[35] = target: T35, TNIK (Homo sapiens, UniProt Q9UKE5)
T35 construct: unspecified tag (tagged kinase); purchased Ambit (KinomeScan screening)
Outline: as §1

[36] = target: T36, TRKC (Homo sapiens, UniProt Q16288)
T36 construct: tag, kind not specified; purchased Ambit (KinomeScan screening service)
Outline: as §1

Measured: Percent of Control Binding

T19 sequence (Q9H2X6 whole entry): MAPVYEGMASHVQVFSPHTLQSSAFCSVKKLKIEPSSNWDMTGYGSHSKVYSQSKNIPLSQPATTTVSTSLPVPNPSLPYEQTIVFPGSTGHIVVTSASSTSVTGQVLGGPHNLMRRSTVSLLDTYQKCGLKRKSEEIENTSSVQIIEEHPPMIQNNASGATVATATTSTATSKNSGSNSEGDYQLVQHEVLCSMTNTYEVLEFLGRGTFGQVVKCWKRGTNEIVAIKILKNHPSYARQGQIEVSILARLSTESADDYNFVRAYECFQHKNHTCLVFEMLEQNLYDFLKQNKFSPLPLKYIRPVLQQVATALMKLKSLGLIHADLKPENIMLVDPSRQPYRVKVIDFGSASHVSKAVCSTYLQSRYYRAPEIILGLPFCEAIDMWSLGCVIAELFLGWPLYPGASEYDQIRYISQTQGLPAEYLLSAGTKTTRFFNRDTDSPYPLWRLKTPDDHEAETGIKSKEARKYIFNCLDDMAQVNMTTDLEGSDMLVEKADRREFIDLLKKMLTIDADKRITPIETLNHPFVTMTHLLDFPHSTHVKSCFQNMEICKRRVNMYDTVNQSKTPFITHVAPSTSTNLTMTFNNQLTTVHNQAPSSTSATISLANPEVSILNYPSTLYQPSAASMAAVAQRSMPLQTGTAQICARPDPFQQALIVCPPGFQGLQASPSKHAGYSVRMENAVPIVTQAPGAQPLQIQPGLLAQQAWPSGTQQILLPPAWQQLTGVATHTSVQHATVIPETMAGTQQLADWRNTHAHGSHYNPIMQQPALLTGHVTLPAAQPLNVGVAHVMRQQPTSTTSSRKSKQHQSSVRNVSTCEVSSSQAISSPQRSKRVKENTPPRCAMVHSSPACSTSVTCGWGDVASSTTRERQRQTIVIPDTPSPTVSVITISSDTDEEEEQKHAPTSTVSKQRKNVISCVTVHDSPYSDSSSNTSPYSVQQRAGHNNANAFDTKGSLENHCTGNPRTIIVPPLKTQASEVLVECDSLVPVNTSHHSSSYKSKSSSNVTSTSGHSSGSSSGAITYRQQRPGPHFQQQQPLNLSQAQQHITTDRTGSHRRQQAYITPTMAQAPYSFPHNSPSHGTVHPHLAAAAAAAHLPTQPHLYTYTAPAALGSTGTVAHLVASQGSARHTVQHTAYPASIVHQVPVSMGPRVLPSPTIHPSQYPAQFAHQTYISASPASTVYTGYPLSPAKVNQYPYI
T18 sequence (P08631 whole entry): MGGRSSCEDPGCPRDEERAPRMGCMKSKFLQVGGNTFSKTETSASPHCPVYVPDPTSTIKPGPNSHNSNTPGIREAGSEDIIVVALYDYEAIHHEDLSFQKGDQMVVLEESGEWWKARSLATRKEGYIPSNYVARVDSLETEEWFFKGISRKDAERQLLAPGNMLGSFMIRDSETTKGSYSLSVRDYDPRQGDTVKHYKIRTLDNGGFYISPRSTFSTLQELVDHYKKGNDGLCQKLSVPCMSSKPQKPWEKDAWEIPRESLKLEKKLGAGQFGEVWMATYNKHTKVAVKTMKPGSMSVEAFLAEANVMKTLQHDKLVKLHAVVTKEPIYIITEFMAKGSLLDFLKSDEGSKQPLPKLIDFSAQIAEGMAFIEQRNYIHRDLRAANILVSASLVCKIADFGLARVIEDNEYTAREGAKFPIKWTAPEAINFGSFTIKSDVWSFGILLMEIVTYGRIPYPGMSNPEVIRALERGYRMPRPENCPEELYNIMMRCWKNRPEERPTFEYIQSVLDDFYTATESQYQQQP
T7 sequence (P50613 whole entry): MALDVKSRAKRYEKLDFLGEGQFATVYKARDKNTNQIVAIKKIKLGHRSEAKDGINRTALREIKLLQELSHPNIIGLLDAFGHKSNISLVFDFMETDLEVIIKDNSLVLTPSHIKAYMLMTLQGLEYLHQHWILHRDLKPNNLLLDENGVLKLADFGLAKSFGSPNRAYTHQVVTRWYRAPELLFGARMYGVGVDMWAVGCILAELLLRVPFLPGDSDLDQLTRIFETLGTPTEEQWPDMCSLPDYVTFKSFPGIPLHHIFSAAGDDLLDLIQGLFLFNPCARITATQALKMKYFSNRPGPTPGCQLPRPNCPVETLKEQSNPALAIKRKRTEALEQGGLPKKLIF
T12 sequence (Q9UEE5 whole entry): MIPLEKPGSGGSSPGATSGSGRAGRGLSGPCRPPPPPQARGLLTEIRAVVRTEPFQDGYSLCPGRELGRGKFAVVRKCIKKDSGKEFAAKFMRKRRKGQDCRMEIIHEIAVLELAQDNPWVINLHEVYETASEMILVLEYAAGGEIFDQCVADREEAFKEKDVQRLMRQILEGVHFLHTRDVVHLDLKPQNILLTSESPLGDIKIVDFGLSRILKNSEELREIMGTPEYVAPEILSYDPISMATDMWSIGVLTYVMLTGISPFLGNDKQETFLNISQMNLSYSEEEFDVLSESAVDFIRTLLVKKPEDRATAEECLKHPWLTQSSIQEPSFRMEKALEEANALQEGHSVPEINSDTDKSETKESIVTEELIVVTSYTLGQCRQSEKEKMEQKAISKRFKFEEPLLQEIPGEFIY
T26 sequence (Q15208 whole entry): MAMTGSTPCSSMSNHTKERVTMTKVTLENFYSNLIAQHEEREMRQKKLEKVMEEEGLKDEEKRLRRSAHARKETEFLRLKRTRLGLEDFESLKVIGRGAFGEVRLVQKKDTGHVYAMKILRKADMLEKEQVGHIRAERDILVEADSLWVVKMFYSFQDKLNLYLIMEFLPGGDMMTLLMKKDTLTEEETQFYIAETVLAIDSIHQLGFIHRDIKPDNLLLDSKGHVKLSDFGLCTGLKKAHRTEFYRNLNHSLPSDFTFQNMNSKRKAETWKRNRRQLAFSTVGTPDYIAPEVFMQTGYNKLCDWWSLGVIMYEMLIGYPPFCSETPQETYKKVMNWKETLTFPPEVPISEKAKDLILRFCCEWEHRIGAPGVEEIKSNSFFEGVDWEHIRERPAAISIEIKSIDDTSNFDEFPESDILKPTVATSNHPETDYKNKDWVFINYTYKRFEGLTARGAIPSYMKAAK
T33 sequence (P37173 23-567): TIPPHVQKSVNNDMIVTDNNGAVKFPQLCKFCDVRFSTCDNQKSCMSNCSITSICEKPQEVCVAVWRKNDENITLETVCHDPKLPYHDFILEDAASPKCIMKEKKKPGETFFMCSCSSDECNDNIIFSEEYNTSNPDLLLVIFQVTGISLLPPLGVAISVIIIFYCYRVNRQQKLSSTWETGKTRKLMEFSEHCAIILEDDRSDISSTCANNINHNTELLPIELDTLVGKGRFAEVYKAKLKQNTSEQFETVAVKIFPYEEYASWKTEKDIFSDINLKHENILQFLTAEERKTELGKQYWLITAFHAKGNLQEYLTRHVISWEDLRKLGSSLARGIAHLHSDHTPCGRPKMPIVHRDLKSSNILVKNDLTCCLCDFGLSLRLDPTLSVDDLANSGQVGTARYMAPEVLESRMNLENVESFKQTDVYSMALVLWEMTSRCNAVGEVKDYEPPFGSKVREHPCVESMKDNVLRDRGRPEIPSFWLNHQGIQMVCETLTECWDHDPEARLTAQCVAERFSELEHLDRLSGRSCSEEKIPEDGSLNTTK
T24 sequence (Q9Y2U5 whole entry): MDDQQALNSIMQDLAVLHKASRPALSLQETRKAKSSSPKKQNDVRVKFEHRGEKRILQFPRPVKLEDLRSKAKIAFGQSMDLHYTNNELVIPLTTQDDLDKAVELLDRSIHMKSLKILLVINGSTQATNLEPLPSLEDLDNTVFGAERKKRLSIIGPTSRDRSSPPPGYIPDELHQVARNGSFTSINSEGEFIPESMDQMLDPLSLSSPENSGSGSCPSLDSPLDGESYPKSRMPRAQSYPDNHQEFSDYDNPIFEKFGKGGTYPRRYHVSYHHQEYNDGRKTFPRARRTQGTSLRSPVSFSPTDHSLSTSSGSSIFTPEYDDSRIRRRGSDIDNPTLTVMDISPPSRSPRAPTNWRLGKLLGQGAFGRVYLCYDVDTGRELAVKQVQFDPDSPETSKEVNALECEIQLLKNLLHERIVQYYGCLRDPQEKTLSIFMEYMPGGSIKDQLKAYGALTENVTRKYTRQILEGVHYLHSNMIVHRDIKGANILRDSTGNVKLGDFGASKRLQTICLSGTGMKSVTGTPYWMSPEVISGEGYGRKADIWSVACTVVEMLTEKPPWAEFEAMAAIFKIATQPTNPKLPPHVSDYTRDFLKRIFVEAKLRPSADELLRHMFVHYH
T22 sequence (P29376 17-864): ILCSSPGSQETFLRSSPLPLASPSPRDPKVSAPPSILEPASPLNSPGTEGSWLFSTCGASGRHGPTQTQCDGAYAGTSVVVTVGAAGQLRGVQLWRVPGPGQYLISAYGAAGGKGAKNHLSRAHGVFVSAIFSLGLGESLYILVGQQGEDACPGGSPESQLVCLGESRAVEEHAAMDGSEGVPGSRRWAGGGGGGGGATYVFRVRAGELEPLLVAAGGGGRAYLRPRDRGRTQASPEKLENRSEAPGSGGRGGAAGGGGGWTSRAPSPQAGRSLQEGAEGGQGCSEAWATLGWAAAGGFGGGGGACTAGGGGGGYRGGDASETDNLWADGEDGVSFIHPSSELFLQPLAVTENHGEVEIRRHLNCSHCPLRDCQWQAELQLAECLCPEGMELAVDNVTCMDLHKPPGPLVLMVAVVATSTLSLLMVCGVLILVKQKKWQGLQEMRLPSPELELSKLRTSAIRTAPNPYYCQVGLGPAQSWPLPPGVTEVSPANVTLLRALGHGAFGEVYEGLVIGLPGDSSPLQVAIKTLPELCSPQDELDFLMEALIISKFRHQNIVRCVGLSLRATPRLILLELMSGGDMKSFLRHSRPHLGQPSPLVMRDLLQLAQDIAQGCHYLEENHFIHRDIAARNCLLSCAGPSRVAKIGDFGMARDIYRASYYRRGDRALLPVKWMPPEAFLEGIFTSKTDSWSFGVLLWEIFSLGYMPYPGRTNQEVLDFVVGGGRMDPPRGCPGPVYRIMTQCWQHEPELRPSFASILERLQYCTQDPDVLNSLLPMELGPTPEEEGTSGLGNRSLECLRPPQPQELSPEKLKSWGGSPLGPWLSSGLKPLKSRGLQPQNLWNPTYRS

Cc1ccccc1-n1c(C(C)Nc2nc(N)nc3nc[nH]c23)nc2cccc(C)c2c1=O (stereo not drawn) [CAL-130]
100%: all assays above
